Assay results: patent US20230114207A1, “THE COMBINATION OF CYCLIN DEPENDENT KINASE 7 INHIBITOR AND IMMUNOTHERAPY FOR TREATMENT OF CANCER” (Dana-Farber Cancer Institute, Inc., priority 2019, published 2023)

Tests used:
[1] = system: intratumoral cell populations, RPP orthotopic mice; assay: Single-cell RNA sequencing of tumor-bearing lungs; assay type: in vivo, mouse
Procedure: To account for interindividual variability, we harvested pooled fresh tumor-bearing lungs from two mice in two independent cohorts of RPP orthotopic mice which were treated with control, YKL-5-124, anti-PD-1 and combination treatment for seven days. Single cell suspensions were achieved as described above and were sorted using DAPI staining. Cells were then resuspended into single cells with 0.4% BSA for 10× genomics processing. Cell suspensions were loaded onto a 10× Genomics Chromium instrument to generate single-cell gel beads in emulsion (GEMs). Approximately 5,000 to 10,000 cells were loaded per channel. scRNA-seq libraries were prepared using the following Single Cell 3′ Reagent Kits: Chromium™ Single Cell 3′ Library & Gel Bead Kit v2 (PN-120237), Single Cell 3′ Chip Kit v2 (PN-120236) and i7 Multiplex Kit (PN-120262) (10× Genomics, Pleasanton, Calif., USA), and following the Single Cell 3′ Reagent Kits v2 User Guide (Manual Part #CG00052 Rev A). Libraries were run on an Illumina HiSeq 4000 system (SY-401-4001, Illumina) as 2×150 paired-end reads, one full lane per sample, for approximately >90% sequencing saturation.
The Cell Ranger Single Cell Software Suite, version 1.3 was used to perform sample de-multiplexing, barcode and UMI processing, and single-cell 3′ gene counting. A detailed description of the pipeline and specific instructions to run it can be found at: https://Support.10×genomics.com/single-cell-gene-expression/software/pipelines/latest/what-is-cell-ranger). A high quality gene expression matrix was created in sequential preprocessing steps as provided in the Seurat (v2.3.4) pipeline. First only genes that were detected in both independent scRNAseq datasets were retained and cells were excluded if respectively more than […] of detected genes were from mitochondrial or ribosomal origin or if less than 500 genes were detected. The count matrix was subsequently log-normalized with a scale-factor of 10000 and the obtained normalized matrix was further corrected by retaining the residuals after regressing out systematic changes due to number of detected UMIs, percent genes from mitochondrial or ribosomal origin.
Cells from both independent datasets were merged together in canonical correlation (CC) space using the intersection of highly variable genes, identified as genes with higher-than-expected variability in consecutive ranked expression bins, from both datasets. The implementation of CC alignment and selection of downstream dimensions to use was performed as described in the Seurat package. Cells were clustered using the Louvain algorithm based on a shared nearest-neighbor network. The final resolution of all subsequent clustering analyses was determined by the biological questions and the need for coarse or fine-grained detail as explored in the subsequent cluster annotation. Clusters were annotated using input from multiple sources, we i) calculated a stromal, cancer and immune score using the estimate (v1.0.13) package in R, ii) identified cluster specific gene expression markers based on gini-scores, iii) created a hierarchical tree based on Pearson correlation scores between clusters to visualize lineage relationships and iv) compared clusters to those of the Immgen database using the SingleR (v0.2.1) package in R. UMAP as implemented by the uwot (v0.0.0.9010) package in R was used to visualize clusters in 2D CC space. Overall this strategy was hierarchically used to assess all cells, cancer cells only, immune cells only and finally T-cells only.
In the first clustering step, several additional analyses were performed to remove dubious or non-reproducible clusters from downstream analyses. To identify contamination of immune cell clusters with cancer cells we performed k-means (2 centers) clustering on all cells on identified and known canonical markers (Epcam, Calca, Stmn1, Ascl1, Krt7, Nfib, Krt8, Krt18) specific to cancer cells. […]

[2] = system: tumor-infiltrating immune cells, RPP orthotopic model; assay: Immune profiling flow cytometry of tumor-bearing lung; assay type: in vivo, mouse
Procedure: Mice were humanely euthanized, and mouse lungs were perfused using sterile PBS through heart perfusion from the left ventricle after BAL fluid collection. The whole lung was cut and minced into small pieces followed by digestion in collagenase D (Sigma-Aldrich) and DNase I (Sigma-Aldrich) in Hank's Balanced Salt Solution (HBSS) at 37° C. for 30 minutes. After incubation, the digested tissue was subjected to a 70 μm cell strainer (Thermo Fisher Scientific) to obtain single-cell suspensions. Separated cells were treated with 1×red blood cell (RBC) lysis buffer (BioLegend). Live cells were determined by LIVE/DEAD fixable aqua dead cell stain kit (Molecular Probes). The cell pellets were resuspended in PBS with 2% FBS for FAGS analysis. Cells were stained with cell surface markers as indicated followed by fixation/permeabilization (eBioscience). Cells were imaged on BD LSRFortessa (BD Biosciences) and analyzed using FlowJo software (Tree Star).

## C=CC(=O)Nc1ccc(C(=O)Nc2n[nH]c3c2CN(C(=O)N[C@H](CN(C)C)c2ccccc2)C3(C)C)cc1 [YKL-5-124]
[1]; compared with control group
  frequencies of total immune cell components: increase
[1]; in comparison to control
  DCs: increase
  myeloid compartments: higher numbers of monocytes and neutrophils
  percentage of total T cells, NK cells and ILC cells: significant increase
[1]; in vivo
  genes within the 'cell-cycle' and 'E2F target' signatures (GSEA): significantly downregulated
  immune response signaling ('Interferon gamma response', 'Inflammatory response'): triggered robust immune response signaling
[1]; in vivo, seven days
  cell-cycle state distribution of cancer cells: mainly arrested at G1 phase
  percentage of S phase cells (cluster 4, 5 and 6): significant decrease
[1]; mouse, in vivo
  c0, c8 and c9 clusters of naive-like CD8^+ T cells: reduction
  c4 percentage: slight reduction
[2]; 7-day treatment
  CD44^highCD62L^+ effector CD4^+ T cells (CD44^highCD62L^low for the combination): substantial increase
  GzmB^+ CD8^+ T cells percentage: considerable but equivalent increase
  ICOS^+ CD4^+ T cells: significantly higher frequencies
  frequencies of total CD4^+ T cell infiltrates: no significant change
  frequencies of total CD8^+ T cell infiltrates: no significant change
  tumor-infiltrating CD4^+ T cells expressing Ki67: modest increase
[2]; compared to control mice
  percentages of tumor resident DCs (MHCII^+ CD11c^+ CD103^+): significant increase
